Where two headings read alike, the source gives them in different places.
Tests used:
[1] = test system: HCMV; test: Viral attachment assay, method 2 (virus-specific cellular ELISA); format: cell-based, human cytomegalovirus; conditions: HCMV MOI 5, ELISA, 4°C; highest inhibitory concentration of the compounds
[2] = test system: ADV-5; test: Dose-response antiviral assay (plaque assay); format: cell-based, human adenovirus type-5; conditions: Human adenovirus sp.; ADV-5 in A549 cells, co-treatment with viral inoculum; read-out: Antiviral effect EC50
[3] = test system: DENV-2; test: Dose-response antiviral assay (immunohistochemical staining plaque assay); format: cell-based, dengue virus type 2; conditions: DENV-2, Vero cells
[4] = test system: MV; test: Viral inactivation assay; format: cell-based, measles virus
[5] = test system: HCV; test: Viral attachment assay, method 1 (host cell infection); format: cell-based, hepatitis C virus
[6] = test system: RSV; test: Viral inactivation assay; format: cell-based, respiratory syncytial virus
[7] = test system: DENV-2; test: Viral inactivation assay; format: cell-based, dengue virus type 2; conditions: Dengue virus
[8] = test system: HCMV; test: Analysis of drug effects post viral entry; format: cell-based, human cytomegalovirus; conditions: HCMV; Figure 6
[9] = test system: MV; test: Viral penetration assay; format: cell-based, measles virus; conditions: Measles morbillivirus, read-out: Window of antiviral effects: Penetration, inhibitory effect relative to DMSO control
[10] = test system: HCMV; test: Viral inactivation assay; format: cell-based, human cytomegalovirus; conditions: Human betaherpesvirus 5, read-out: inhibition of infection after pre-incubation of free virus with compound
[11] = test system: RSV; test: Viral penetration assay; format: cell-based, respiratory syncytial virus; conditions: human respiratory syncytial virus, HEp-2, read-out: Window of antiviral effects: Penetration, inhibitory effect relative to DMSO control
[12] = test system: HCMV; test: Dose-response antiviral assay (plaque assay); format: cell-based, human cytomegalovirus; conditions: for EC50: HCMV in HEL cells, co-treatment with viral inoculum, read-out: Antiviral effect EC50
[13] = test system: MV; test: microbe, parasite or virus in culture; format: cell-based, measles virus; conditions: for EC50: MV in CHO-SLAM cells, co-treatment with viral inoculum, read-out: Antiviral effect EC50
[14] = test system: RSV; test: Viral attachment assay, method 1 (host cell infection); format: cell-based, respiratory syncytial virus
[15] = test system: DENV-2; test: Viral cell-to-cell spread assay; format: cell-based, dengue virus type 2
[16] = in vivo; cited from earlier work
[17] = test system: HCMV; test: Viral cell-to-cell spread assay; format: cell-based, human cytomegalovirus
[18] = XTT cytotoxicity assay; format: cell-based
Description: Cells (1 × 10^4 per well of 96-well plate) were treated with the test compounds for 3 days. Treatment effects on cell viability (%) and the 50% cytotoxic concentration (CC50) values of the test compounds were determined based on the XTT (2,3-bis[2-methoxy-4-nitro-5-sulfophenyl]-5-phenylamino)-carbonyl]-2H-tetrazolium hydroxide) assay as previously reported.

[19] = test system: HCV; test: Viral attachment assay, method 2 (virus-specific cellular ELISA); format: cell-based, hepatitis C virus; conditions: HCV MOI 0.1, ELISA, 4°C; highest inhibitory concentration of the compounds
[20] = test system: RSV; test: Viral cell-to-cell spread assay; format: cell-based, respiratory syncytial virus
[21] = test system: RSV; test: Analysis of drug effects post viral entry; format: cell-based, respiratory syncytial virus; conditions: RSV; Figure 6
[22] = test system: DENV-2; test: Analysis of drug effects post viral entry; format: cell-based, dengue virus type 2; conditions: DENV-2; Figure 6
[23] = test system: DENV-2; test: Viral attachment assay, method 2 (virus-specific cellular ELISA); format: cell-based, dengue virus type 2; conditions: DENV-2 MOI 5, ELISA, 4°C; highest inhibitory concentration of the compounds
[24] = test system: MV; test: Viral cell-to-cell spread assay; format: cell-based, measles virus
[25] = test system: HCV; test: Viral inactivation assay; format: cell-based; conditions: Hepatitis C virus
[26] = test system: HCV; test: Analysis of drug effects post viral entry; format: cell-based, hepatitis C virus
[27] = test system: MV; test: Viral attachment assay, method 2 (virus-specific cellular ELISA); format: cell-based, measles virus; conditions: MV MOI 1, ELISA, 4°C; highest inhibitory concentration of the compounds
[28] = test system: HCV; test: Viral penetration assay; format: cell-based, hepatitis C virus; conditions: Hepatitis C virus, Huh7.5, read-out: Window of antiviral effects: Penetration, inhibitory effect relative to DMSO control
[29] = test system: HCV; format: cell-based, hepatitis C virus; conditions: Huh-7.5 cells
[30] = test system: RSV; test: Viral attachment assay, method 2 (virus-specific cellular ELISA); format: cell-based, respiratory syncytial virus; conditions: RSV MOI 5, ELISA, 4°C; highest inhibitory concentration of the compounds

## O=C(O)C[C@@H]1C(=O)O[C@H]2[C@@H]3OC(=O)c4cc(O)c(O)c(O)c4-c4c(cc(O)c(O)c4O)C(=O)OC[C@H]2O[C@@H](OC(=O)c2cc(O)c(O)c(O)c2)[C@@H]3OC(=O)c2cc(O)c(O)c3c2[C@H]1[C@H](O)C(=O)O3 [CHLA, chebulagic acid]
[1]
  Window of antiviral effects: Attachment Method 2, inhibitory effect relative to DMSO control: +++ (+++ > 75%)
[2]
  EC50: 198 ± 14.1 µM
[3]
  SI (selectivity index, CC50/EC50): 12.18
[4]; MV, CHLA 90 μM, PUG 50 μM, Figure 3
  block of infection after pre-incubation of free virus with compound: 60 – 80%
[4]; Measles morbillivirus, read-out: Window of antiviral effects: Free particle, inhibitory effect relative to DMSO control
  inhibition at 90 µM: 50 to 75%
[5]; HCV, method 1, 4°C, Figure 4
  inhibition of virus attachment: 90 – 100%
[5]; Hepatitis C virus, Huh7.5, read-out: Window of antiviral effects: Attachment Method 1, inhibitory effect relative to DMSO control
  inhibition at 50 µM: > 75%
[6]; RSV, CHLA 1 μM, PUG 2 μM, Figure 3
  block of infection after pre-incubation of free virus with compound: 60 – 80%
[6]; human respiratory syncytial virus, HEp-2, read-out: Window of antiviral effects: Free particle, inhibitory effect relative to DMSO control
  inhibition at 1 µM: > 75%
[7]; DENV2, Vero, read-out: Window of antiviral effects: Free particle, inhibitory effect relative to DMSO control
  inhibition at 25 µM: > 75%
[7]; DENV2, read-out: inhibition of infection after pre-incubation of free virus with compound
  inhibition at 25 µM: ~100%
[8]
  protection, treatment post-infection: 80 – 100%
[9]
  inhibition at 90 µM: 50 to 75%
[10]
  inhibition at 60 µM: ~100%
[11]
  inhibition at 1 µM: 50 to 75%
[12]
  EC50: 25.5 ± 1.51 µM
[12]; HCMV, HEL cells
  SI (selectivity index, CC50/EC50): 12.01
[12]; Human betaherpesvirus 5, HEL
  EC50: < 35 µM
[13]
  EC50: 34.4 ± 4.35 µM
[13]; MV, CHO-SLAM cells
  SI (selectivity index, CC50/EC50): 10.22
[13]; Measles morbillivirus
  EC50: < 35 µM
[14]; RSV, method 1, 4°C, Figure 4
  inhibition of virus attachment: 90 – 100%
[14]; human respiratory syncytial virus, HEp-2, read-out: Window of antiviral effects: Attachment Method 1, inhibitory effect relative to DMSO control
  inhibition at 1 µM: > 75%
[15]; DENV-2, Figure 7
  effect on viral plaque size (cell-to-cell spread): unaffected and expanded further
[15]; Dengue virus, DENV2, Vero, read-out: Window of antiviral effects: Cell-to-cell spread, inhibitory effect relative to DMSO control
  inhibition at 25 µM: < 25%
[16]
  in vivo toxicity: minimal toxicity
[17]; HCMV, Figure 7
  effect on viral plaque size (cell-to-cell spread): near initial size
[17]; Human betaherpesvirus 5, HEL, read-out: Window of antiviral effects: Cell-to-cell spread, inhibitory effect relative to DMSO control
  inhibition at 60 µM: > 75%
[18]; African green monkey
  CC50 at 3 days: 160 ± 7.46 µM
[18]; Chinese hamster
  CC50 at 3 days: 352 ± 4.54 µM
[19]
  Window of antiviral effects: Attachment Method 2, inhibitory effect relative to DMSO control: +++ (+++ > 75%)
[20]; RSV, Figure 7
  effect on viral plaque size (cell-to-cell spread): unaffected and expanded further
[20]; human respiratory syncytial virus, HEp-2, read-out: Window of antiviral effects: Cell-to-cell spread, inhibitory effect relative to DMSO control
  inhibition at 1 µM: < 25%
[21]
  protection, treatment post-infection: < 25%
[22]
  protection, treatment post-infection: < 25%
[23]
  Window of antiviral effects: Attachment Method 2, inhibitory effect relative to DMSO control: +++ (+++ > 75%)
[24]; MV, Figure 7
  effect on viral plaque size (cell-to-cell spread): near initial size
[24]; Measles morbillivirus, read-out: Window of antiviral effects: Cell-to-cell spread, inhibitory effect relative to DMSO control
  inhibition at 90 µM: > 75%
[25]; Huh7.5, read-out: Window of antiviral effects: Free particle, inhibitory effect relative to DMSO control
  inhibition at 50 µM: > 75%
[25]; read-out: inhibition of infection after pre-incubation of free virus with compound
  inhibition at 50 µM: ~100%
[26]; HCV, Figure 6
  protection, treatment post-infection: 80 – 100%
[26]; Hepatitis C virus, Huh7.5, read-out: Window of antiviral effects: Post-infection, inhibitory effect relative to DMSO control
  inhibition at 50 µM: > 75%
[27]
  Window of antiviral effects: Attachment Method 2, inhibitory effect relative to DMSO control: ++ (++ 50–75%)
[28]
  inhibition at 50 µM: > 75%
[29]
  SI (selectivity index, CC50/EC50): 19.54
[30]
  Window of antiviral effects: Attachment Method 2, inhibitory effect relative to DMSO control: +++ (+++ > 75%)

From article PMC3750913 (BMC Microbiology, 2013)
